Measured values taken from article PMC4987125 (Molecular microbiology, 2015).
Where no end group is shown, it is not given here.

How the values were obtained:
[1] = test system: Rgg2/3 quorum-sensing pathway (Pshp3-lux); assay: Luminescence transcriptional reporter assay, Pshp3-lux; assay type: cell-based, Streptococcus pyogenes; settings: WT NZ131 Pshp3-lux, CDM with 1% mannose and 0.05% glucose; 500 nM RI-10, 500 nM L10A or 10 mM MgSO4
[2] = test system: PepO in intact cells, lysed cells or conditioned supernatants; assay: Activity-based screening for PepO localization; assay type: in vitro ADME, Streptococcus pyogenes; settings: 50 nM sSHP2-C8, intact cells, lysed cells or conditioned supernatants of ΔoppD shp2GGG shp3GGG pepO+ and pepO- cultures, 30 °C, 4 hours; read-out ΔpepO shp2GGGshp3GGG Pshp3-lux reporter

| Molecule | effect on Pshp3-lux induction in mannose-induced wild-type reporter [1] | PepO-dependent degradation of SHP in cellular fractions [2] |
| --- | --- | --- |
| O=S(=O)([O-])[O-].[Mg+2] [Mg^2+, MgSO4] | unlike cultures treated with the inactive L10A variant or Mg^2+ | – |
| DILIIVGG [sSHP2-C8] | – | found only in the cytoplasmic fraction |
